Test results published in US8163909B2, “Substituted hydroxyethyl amine compounds as beta-secretase modulators and methods of use” (Amgen Inc., priority 2007, dated 2012).
Where two headings read alike, the source gives them in different places.

What was measured:
[1] = target: Beta Secretase enzyme (BACE) (Homo sapiens, UniProt P56817); assay: In vitro enzymatic BACE FRET (fluorescence resonance energy transfer) assay; format: biochemical;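 note: fluorescence read after 1 h with 50 nM quenched peptide substrate spanning the BACE cleavage site, in pH 4.2 acetate buffer containing 10% DMSO and nonionic detergent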
Chain of Beta Secretase enzyme (BACE) (P56817 46-501): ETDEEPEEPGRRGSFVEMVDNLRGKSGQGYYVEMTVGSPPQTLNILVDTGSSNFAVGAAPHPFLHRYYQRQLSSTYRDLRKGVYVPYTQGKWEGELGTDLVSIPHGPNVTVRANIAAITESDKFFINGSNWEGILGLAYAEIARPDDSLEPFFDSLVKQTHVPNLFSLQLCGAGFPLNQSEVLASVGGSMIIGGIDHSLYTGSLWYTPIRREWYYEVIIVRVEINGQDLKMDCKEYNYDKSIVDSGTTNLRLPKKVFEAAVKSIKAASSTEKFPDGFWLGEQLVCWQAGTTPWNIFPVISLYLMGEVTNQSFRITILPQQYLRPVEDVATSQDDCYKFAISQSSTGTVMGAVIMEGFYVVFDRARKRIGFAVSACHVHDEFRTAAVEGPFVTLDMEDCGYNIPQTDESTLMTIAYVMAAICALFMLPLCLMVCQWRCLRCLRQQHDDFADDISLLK

[2] = Microsomal stability assay, rat liver microsomes; conditions: rat liver microsomal data;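 note: rat liver microsomes (0.25 mg/mL) with about 1 µM compound plus 1 mM NADPH, pH 7.4, 37 °C for 30 min, parent left measured by LC-MS/MS against 0 min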
[3] = system: Aβ40 in conditioned medium of cells stably expressing Amyloid Precursor Protein (APP); assay: In vitro BACE cell-based assay (Aβ40 in conditioned medium, sandwich ELISA);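 note: compounds added as a dilution series, secreted peptide quantified by europium time-resolved fluorescence readout, potency fitted from percent of control versus compound concentration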
[4] = Microsomal stability assay, human liver microsomes; conditions: human liver microsomal data;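 note: pooled human liver microsomes at 0.25 mg/mL with 1 µM compound and NADPH at 37 °C, pH 7.4, for 30 min, unchanged parent quantified by LC-MS/MS against the 0 min sample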
CYP2D6 = CYP2D6 (Homo sapiens, UniProt P10635); assay: CYP2D6 inhibition assay (bufuralol, pooled human liver microsomes); conditions: 2D6 IC50, CYP enzyme inhibition
Chain of CYP2D6 (P10635 whole entry): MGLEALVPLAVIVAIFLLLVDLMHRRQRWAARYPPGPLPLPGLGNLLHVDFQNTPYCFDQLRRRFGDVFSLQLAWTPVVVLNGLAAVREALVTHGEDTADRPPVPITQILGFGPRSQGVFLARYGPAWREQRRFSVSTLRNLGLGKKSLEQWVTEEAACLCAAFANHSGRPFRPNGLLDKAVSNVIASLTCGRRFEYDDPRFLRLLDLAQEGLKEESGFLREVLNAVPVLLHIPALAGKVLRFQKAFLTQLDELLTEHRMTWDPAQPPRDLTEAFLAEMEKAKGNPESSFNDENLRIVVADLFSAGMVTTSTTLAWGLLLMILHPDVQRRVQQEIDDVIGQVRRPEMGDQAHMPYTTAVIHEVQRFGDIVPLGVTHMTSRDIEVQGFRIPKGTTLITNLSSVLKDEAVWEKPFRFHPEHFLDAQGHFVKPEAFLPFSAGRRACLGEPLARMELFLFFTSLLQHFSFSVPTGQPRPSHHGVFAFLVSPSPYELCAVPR

[5] = BACE enzyme assay, IC50's in uM, read-out: BACE1 FRET assay
[6] = Homo sapiens, HEK293, cell-based assay, HEK cells, IC50's in uM, read-out: HEK cell assay
[7] = BACE enzyme FRET assay, read-out: BACE1 FRET assay (IC50)
[8] = HEK cells, cell-based assay, read-out: HEK cell assay (IC50)
[9] = BACE enzyme assay, read-out: BACE1 FRET assay (IC50)
[10] = Homo sapiens, HEK293, HEK cells, cell-based assay, read-out: HEK cell assay (IC50)

## CCO[C@H](C)C(=O)N[C@@H](Cc1ccc2c(c1)OCO2)[C@H](O)CN[C@H]1CC2(CCC2)Oc2ncc(CC(C)(C)C)cc21 [compound 887]
[1]; [5]
  IC50: 0.102 µM
[2]
  RLM: 136 µL/min/mg
[3]; [6]
  IC50: 0.052 µM
[4]
  HLM: 37 µL/min/mg

## C#Cc1cccc(C[C@H](NC(=O)[C@@H]2CCCO2)[C@H](O)CN[C@H]2CC3(CCC3)Oc3ncc(CC(C)(C)C)cc32)c1 [compound 897]
[1]; [5]
  IC50: 0.005 µM
[2]
  RLM: 55 µL/min/mg
[3]; [6]
  IC50: 0.007 µM
CYP2D6
  IC50: 3.6 µM

## COCC(=O)N[C@@H](Cc1cccc(F)c1)[C@H](O)CN[C@H]1CC2(CCC2)Oc2c1cc(Cl)cc2-n1ccnc1 [compound 553]
[1]; BACE enzyme assay, read-out: BACE1 FRET assay
  IC50: 0.146 µM
[2]
  RLM: 86 µL/min/mg
[4]
  HLM: 47 µL/min/mg

## COC(C)C(=O)NC(Cc1ccc2c(c1)OCO2)C(O)CNC1CC2(CC(O)C2)Oc2cnccc21 [compound 243, (2R)—N-((1S,2R)-1-(1,3-benzodioxol-5-ylmethyl)-2-hydroxy-3-(((1s,3S,4′S)-3-hydroxy-3′,4′-dihydrospiro[cyclobutane-1,2′-pyrano[2,3-c]pyridin]-4′-yl)amino)propyl)-2-(methyloxy)propanamide]
[1]; [7]
  IC50: 36.1 µM
[3]; [8]
  IC50: 3.33 µM

## CC(C)(C)Cc1cnc2c(c1)[C@@H](NC[C@@H](O)[C@H](Cc1ccc(F)cc1)NC(=O)[C@H](O)C(F)(F)F)CC1(CCC1)O2 [compound 68]
[1]; [9]
  IC50: 0.0486 µM
[3]; [10]
  IC50: 0.0553 µM

## N-((1S,2R)-1-((3-cyanophenyl)methyl)-3-(((4′S)-6′-(2,2-dimethylpropyl)-3′,4′-dihydrospiro[cyclobutane-1,2′-pyrano[2,3-b]pyridin]-4′-yl)amino)-2-hydroxypropyl)-1-cyclobutyl-4,4-dimethyl-5-oxo-3-pyrrolidinecarboxamide [compound 60]
[1]; [9]
  IC50: 0.0211 µM
[3]; [8]
  IC50: 0.0631 µM

## COCC(=O)N[C@@H](Cc1ccc(F)cc1)[C@H](O)CN[C@H]1CC2(CCC2)Oc2cnc(CC(C)(C)F)cc21 [compound 255]
[1]; [7]
  IC50: 0.19 µM
[3]; [10]
  IC50: 0.216 µM

## CO[C@H](C)C(=O)N[C@@H](Cc1cccc(F)c1)[C@H](O)CN[C@H]1CC2(CCC2)Oc2ncc(CC(C)(C)C(F)(F)F)cc21 [compound 74]
[1]; [9]
  IC50: 0.0305 µM
[3]; [10]
  IC50: 0.0949 µM

## COC(OC)C(=O)N[C@@H](Cc1cccc(C(N)=O)c1)[C@H](O)CN[C@H]1CC2(CCC2)Oc2ncc(CC(C)(C)F)cc21 [compound 864]
[1]; [5]
  IC50: 0.04 µM
[3]; [6]
  IC50: 0.117 µM

## CC(=O)N[C@@H](Cc1ccc2c(c1)OCO2)[C@H](O)CN[C@H]1CC2(CCC2)Cc2ncc(CC(C)(C)C)cc21 [compound 167]
[1]; [9]
  IC50: 0.125 µM
[3]; [10]
  IC50: 0.0684 µM

## CC(C)(C)Cc1cnc2c(c1)[C@@H](NC[C@@H](O)[C@H](Cc1ccc3c(c1)OCO3)NC(=O)C(F)(F)F)CC1(CCC1)O2 [compound 288]
[1]; [7]
  IC50: 0.0539 µM
[3]; [10]
  IC50: 0.455 µM

## CO[C@@H](C)C(=O)N[C@@H](Cc1ccc(F)cc1)[C@H](O)CN[C@H]1CC2(CCC2)Oc2c(F)cc(CC(C)(C)C)cc21 [compound 175]
[1]; [9]
  IC50: 0.0173 µM
[3]; [10]
  IC50: 0.229 µM

## CC(=O)N[C@@H](Cc1ccc2c(c1)OCO2)[C@H](O)CN[C@H]1CC2(CCC2)Oc2ncc([C@H](F)C(C)(C)C)cc21 [compound 182]
[1]; [9]
  IC50: 0.00701 µM
[3]; [10]
  IC50: 0.016 µM

## CC(=O)N[C@@H](Cc1ccc(F)cc1)[C@H](O)CNC1c2cc(CC(C)(C)C)cnc2OC2(CCC2)C1F (stereo partly shown) [compound 355]
[1]; Table 1, read-out: BACE1 FRET assay
  IC50: 0.117 µM
[3]; Homo sapiens, HEK293, Table 1, HEK cells, read-out: HEK cell assay
  IC50: 0.113 µM

## COC(C)C(=O)NC(Cc1ccc2c(c1)OCO2)C(O)CNC1CC2(CC(O)C2)Oc2ncc(CC(C)C)cc21 [compound 248, (2R)—N-((1S,2R)-1-(1,3-benzodioxol-5-ylmethyl)-2-hydroxy-3-(((1s,3S,4′S)-3-hydroxy-6′-(2-methylpropyl)-3′,4′-dihydrospiro[cyclobutane-1,2′-pyrano[2,3-b]pyridin]-4′-yl)amino)propyl)-2-(methyloxy)propanamide]
[1]; [7]
  IC50: 0.0172 µM
[3]; [10]
  IC50: 0.035 µM

## CNc1nc(CC(C)(C)C)cc2c1OC1(CCC1)C[C@@H]2NC[C@@H](O)[C@H](Cc1ccc(F)cc1)NC(=O)COC [compound 147]
[1]; [9]
  IC50: 0.0495 µM
[3]; [10]
  IC50: 0.0232 µM
